{"source": "patent US7582655B2", "about": "“Antineoplastic compounds” (University of Saskatchewan, priority 2005, dated 2009)", "key": {"[1]": {"tested_on": "murine L-5178 lymphoma cells transfected with the human MDR1 gene", "test": "MDR reversal, rhodamine 123 fluorescence activity ratio", "conditions": "FAR >1 indicates MDR reversal; for FAR value 4 μg/ml: compound 4 μg/ml; for FAR value 40 μg/ml: compound 40 μg/ml", "description": "A solution of the test compound (2 mg/ml, 10 μl) in dimethylsulfoxide was added to aliquots of the cell suspension and incubated at room temperature for 10 minutes. […] The cells were washed twice and resuspended in PBS (pH 7.4) after which the fluorescence was measured using a Beckton Dickinson FACScan instrument. The fluorescence of the cells was measured in treated MDR cells (F1), untreated MDR cells (F2), treated parental cells (F3) […] were obtained from the following equation, viz (F1/F2)/(F3/F4)."}, "[2]": {"tested_on": "human squamous cell carcinomas HSC-2", "test": "Cytotoxicity CC50, MTT assay, HSC-2", "conditions": "Homo sapiens, HSC-2, 24 h, read-out: CC50(μM) HSC-2", "description": "(§1) In addition, the compounds were evaluated against human squamous cell carcinomas (HSC-2 and HSC-4) and human promyelocytic leukemia neoplasms (HL-60) and compared with normal cells, i.e. human gingival fibroblasts (HGF), human pulp cells (HPC) and human periodontal ligament fibroblasts (HPLF).\n(§2) MTT stands for 3-(4,5-dimethylthiazol-2-yl)-2,5-diphenyltetrazolium bromide). The cells were incubated with varying concentrations of the compounds along with untreated cells for 24 h and the absorbance at 540 nm measured. In the case of the HL-60 assay, the trypan blue exclusion method was followed and cell viability was determined using a haemocytometer. The CC50 values were obtained from dose-response curves (Sakagami, H.; Satoh, K.; Ohata, H.; Takahashi, H.; Yoshida, H.; Iida, M.; Kuribayashi, N.; Sakagami, T.; Momose, K.; Takeda, M. Anticancer Res. 1996, 16, 2635-2644). The general methods used in culturing the cells employed in these cytotoxicity experiments have been described previously (Kawase, M.; Sakagami, H.; Motohashi, N.; Hauer, H.; Chatterjee, S. S.; Spengler, G.; Vigyikanne, A. V.; Molnár, A.; Molnár, J. In Vivo 2005, 19, 705-712; and Takeuchi, R.; Hoshijima, H.; Onuki, N.; Nagasaka, H.; Chowdhury, S. A.; Kawase, M.; Sakagami, H. Anticancer Res. 2005, 25, 4037-4042). In brief, the malignant cells were obtained from Professor Nagumo, Showa University, Japan. The HGF, HPC and HPLF cells were prepared from human periodontal tissue after obtaining informed consent according to the guidelines of Meikai University Ethics Committee, Japan (No. 0206). Since normal cells have a short lifespan, cells at the 3-7 population doubling time were used. With the exception of the HL-60 neoplasm, the cells were cultured in DMEM containing heat-inactivated FBS (10%) at 37° C. in a humidified carbon dioxide atmosphere and subcultured by trypsinization. The HL-60 cells were cultured in a similar fashion except that RPMI 1640 media was employed."}, "[3]": {"tested_on": "human squamous cell carcinomas HSC-4", "test": "Cytotoxicity CC50, MTT assay, HSC-4", "conditions": "Homo sapiens, HSC-4, 24 h, read-out: CC50(μM) HSC-4", "description": "as §1, §2"}, "[4]": {"tested_on": "HGF, HPC and HPLF cells versus HSC-2, HSC-4 and HL-60 neoplasms", "test": "Selectivity index, normal versus malignant cells", "assay_type": "cell-based, human", "conditions": "average CC50 of HGF, HPLF divided by average CC50 of HSC-2, HSC-4, HL-60", "description": "as §1, §2"}, "[5]": {"tested_on": "human promyelocytic leukemia HL-60", "test": "Cytotoxicity CC50, trypan blue exclusion, HL-60", "conditions": "Homo sapiens, HL-60, 24 h, read-out: CC50(μM) HL-60", "description": "as §1, §2"}, "in vitro [6]": {"test": "in vitro", "conditions": "human", "description": "as §1, §2"}, "in vitro [7]": {"test": "in vitro", "conditions": "human", "description": "as §1, §2", "remark": "listed apart in the source"}, "in vitro [8]": {"test": "in vitro", "conditions": "human", "description": "as §1, §2", "remark": "listed apart in the source"}}}
{"compound": "CCN(CC)CCOc1ccc(C(=O)O)cc1.Cl", "values": [{"measurement": "melting point", "result": "170 to 172", "unit": "°C"}]}
{"compound": "Cc1ccc(C=C2CNCC(=Cc3ccc(C)cc3)C2=O)cc1", "note": "[Compound 1d, 3,5-bis(4-Methylphenylmethylene)-4-piperidone]", "values": [{"measurement": "FAR value 4 μg/ml", "setting": "[1]", "result": 3.26}, {"measurement": "FAR value 40 μg/ml", "setting": "[1]", "result": 4.03}, {"measurement": "CC50", "setting": "[2]", "result": 3.9, "unit": "µM"}, {"measurement": "CC50", "setting": "[3]", "result": 9.3, "unit": "µM"}, {"measurement": "SI (selectivity index)", "setting": "[4]", "result": 29}, {"measurement": "CC50", "setting": "[5]", "result": 4.5, "unit": "µM"}]}
{"compound": "O=C1C(=Cc2ccccc2)CN(C(=O)c2ccccc2)CC1=Cc1ccccc1", "note": "[Compound 2a, 1-Benzoyl-3,5-bis(phenylmethylene)-4-piperidone]", "values": [{"measurement": "melting point", "result": "165 to 166", "unit": "°C"}]}
{"compound": "COc1ccc(C(=O)N2CC(=Cc3ccccc3)C(=O)C(=Cc3ccccc3)C2)cc1", "note": "[Compound 2b, 1-(4-Methoxybenzoyl)-3,5-bis(phenylmethylene)-4-piperidone]", "values": [{"measurement": "melting point", "result": "177 to 178", "unit": "°C"}]}
{"compound": "CCN(CC)CCOc1ccc(C(=O)N2CC(=Cc3ccc(Cl)cc3)C(=O)C(=Cc3ccc(Cl)cc3)C2)cc1.Cl", "note": "[Compound 4b, 3,5-bis(4-Chlorophenylmethylene)-1-[4-(2-diethylaminoethoxy)phenylcarbonyl]-4-piperidone hydrochloride]", "values": [{"measurement": "FAR value 4 μg/ml", "setting": "[1]", "result": 118}, {"measurement": "FAR value 40 μg/ml", "setting": "[1]", "result": 99.7}, {"measurement": "CC50", "setting": "[2]", "result": 160, "unit": "µM"}, {"measurement": "CC50 at 24 h", "setting": "in vitro [6]", "result": 230, "unit": "µM"}, {"measurement": "CC50 at 24 h", "setting": "in vitro [7]", "result": "> 400", "unit": "µM"}, {"measurement": "CC50", "setting": "[3]", "result": 34, "unit": "µM"}, {"measurement": "SI (selectivity index)", "setting": "[4]", "result": ">4.3"}, {"measurement": "CC50 at 24 h", "setting": "in vitro [8]", "result": "> 400", "unit": "µM"}, {"measurement": "CC50", "setting": "[5]", "result": 46, "unit": "µM"}]}
